Data on five compounds can be found in patent EP3954371B1, “ANTI-ACETYLCHOLINESTERASE ACTIVE COMPOSITION IN CAULIS MAHONIAE AND SCREENING METHOD THEREFOR AND APPLICATION THEREOF” (Shenzhen Institute for Drug Control (Shenzhen Testing …, priority 2019, dated 2021).

In assay [1] the target is T1, AChE (Homo sapiens, UniProt P22303).
T1 construct: purchased Sigma
As to the kind of experiment: synergistic effect of combined active components (FIC) by AChE assay method. The format is biochemical. Particulars: for effect of combinations when used as the first alkaloid: first alkaloid diluted stepwise, other alkaloids fixed at IC30; for IC20 / IC80 / IC90 / IC50: first compound diluted, added compounds fixed at IC30, unit not in table; for IC20: read-out: IC Value (Standard Deviation) IC20; for IC80: read-out: IC Value (Standard Deviation) IC80; for IC90: read-out: IC Value (Standard Deviation) IC90; for IC50: read-out: IC Value (Standard Deviation) IC50 (converted). How it is done:
One pharmaceutical component, compound A, was selected and diluted step by step according to 1:1; the concentration of a second pharmaceutical component, compound B, was fixed to IC30; based on a size of a fractional inhibitory concentration (FIC) value, the concentration of compound A was fixed, the concentration of pharmaceutical compound B was changed, and the FIC value was determined.
Fractional effects (FEs) of the two compounds are as follows: FEA = IC50 (A+B)/IC50 (A) [formula] FEB = IC50 (A+B)/IC50 (B) [formula] FIC = FEA + FEB [formula]
By analogy, all possible combinations were calculated. Table 4 Dilution concentration and fold

Assay [2] addresses T1, AChE. As to the kind of experiment: biochemical. Particulars: mean ± standard deviation, repeated three times; 10 min at 37 °C, absorbance at 405 nm. The protocol: For the reaction system, see Table 3. The specific steps are described below.
140 µL of phosphate buffer (PBS, 0.1 mol/L, pH = 7.4), 20 µL of AChE (0.303 U/mL) and 20 µL of sample solution were added in sequence to a 96-well plate, mixed evenly, and added with 10 µL of DTNB (3.3 mM) and 10 µL of acetylthiocholine iodide (ATCI) (15 mM). They were mixed evenly and incubated for 10 min at 37 °C, then measured absorbance at 405 nm.
The sample was replaced with PBS in a blank enzyme group. The sample was replaced with PBS in a blank enzyme-free group. The enzyme solution was replaced with PBS in the sample control group.
The inhibitory rate of the sample against AChE activity is calculated by the following formula: Inhibitory rate = [1−(Asample−Asample control)/(Ablank enzyme−Ablank enzyme−free)] × 100% [formula]
The median inhibitory concentration of AChE was calculated by testing inhibitory rates at different sample concentrations. […] Table 3 Anti-AChE activity screening method

Assay [3] has as its target T1, AChE. The format is binding. To be noted: 20 µg/mL in ammonium acetate buffer (10 mM, pH = 7.4) for standards; FIGS. 4A, 4B, 5.
Procedure: In a first step, a mobile phase, the ammonium acetate buffer (10 mM, pH = 7.4), was provided by a peristaltic pump at a flow rate of 5 µL/min and a sample was injected at a volume of 100 µL, and the process lasted for 40 min, then fractions were collected.
In a second step, the mobile phase was changed from the ammonium acetate buffer (10 mM, pH = 7.4) to methanol and provided at a flow rate of 20 µL/min and target components were dissociated from proteins, and the process lasted for 20 min, then fractions were collected.
A blank control monolithic column, Control-ICER, was set by the same operation method and the corresponding fractions were collected.
The collected fractions were blown to dryness with N2, dissolved in 100 µL of methanol, and analyzed through LC-MS.
LC-MS conditions: a chromatographic column Thermo Acclaim TM C18 (4.6 mm× 250 mm, 5 µm); mobile phases where acetonitrile was mobile phase A and 0.08% (v/v) formic acid and a 2 mM ammonium acetate solution were mobile phase B; a flow rate of 1.0 mL/min; an injection volume of 3 µL; a column temperature of 25 °C; and a detection wavelength of 280 nm. […]

T1 sequence (P22303 32-614): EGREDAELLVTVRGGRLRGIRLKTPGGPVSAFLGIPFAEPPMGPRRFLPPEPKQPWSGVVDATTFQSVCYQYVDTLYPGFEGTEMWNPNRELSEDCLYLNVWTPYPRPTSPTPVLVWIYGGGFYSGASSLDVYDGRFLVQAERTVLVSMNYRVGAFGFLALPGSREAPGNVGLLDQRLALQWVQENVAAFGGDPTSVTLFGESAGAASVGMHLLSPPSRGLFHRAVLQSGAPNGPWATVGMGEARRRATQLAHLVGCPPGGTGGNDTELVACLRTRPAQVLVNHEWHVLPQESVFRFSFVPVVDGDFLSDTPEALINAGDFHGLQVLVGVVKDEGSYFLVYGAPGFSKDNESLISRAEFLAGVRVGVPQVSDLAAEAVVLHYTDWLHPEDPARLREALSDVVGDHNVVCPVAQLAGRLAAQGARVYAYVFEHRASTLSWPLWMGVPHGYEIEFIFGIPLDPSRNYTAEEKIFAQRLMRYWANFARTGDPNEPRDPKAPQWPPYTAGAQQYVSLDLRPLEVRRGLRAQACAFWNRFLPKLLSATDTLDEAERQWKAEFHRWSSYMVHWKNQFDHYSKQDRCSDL

Turning to `COc1ccc2cc3[n+](cc2c1OC)CCc1cc2c(cc1-3)OCO2` [Ber, berberine], in assay [1], the “effect of combinations when used as the first alkaloid” value (shortened to “effect of combinations when used”) is listed as “only the irrelevant effect or the antagonistic effect”; the IC20 (in general, the concentration at which the effect reaches the 20% level) came to 0.26 µg/mL; the IC80 – broadly, the concentration at which the effect reaches the 80% level – is 24.1 µg/mL; the IC90 (usually the concentration at which the effect reaches the 90% level) stood at 50.2 µg/mL.

In the case of `COc1cc2c(cc1O)-c1cc3ccc(OC)c(OC)c3c[n+]1CC2` [Col, columbamine], in assay [1], the “effect of combinations when used” value is listed as “significant synergistic effect”, the 20% effect concentration (IC20) was found to be 0.18 µg/mL, the IC50 (commonly the concentration at which inhibition is half-maximal) is 2.75 µM and the IC80 was 4.8 µg/mL. Also, in assay [1], the IC90 worked out at 12.5 µg/mL. The compound also showed a 50% inhibitory concentration (IC50) in assay [2] of 2.75 µM.

Regarding `COc1cc2c(cc1O)CC[n+]1cc3c(OC)c(OC)ccc3cc1-2` [Jat, jatrorrhizine], in assay [1], the “effect of combinations when used” value is listed as “significant synergistic effect”, the IC20 worked out at 0.39 µg/mL, the IC50 is 10.3 µM and the IC80 worked out at 31.4 µg/mL. In assay [1], the concentration for an effect of 90% (IC90) amounted to 63.2 µg/mL. In assay [2], this compound showed an IC50 of 10.3 µM.

For the compound `COc1cc2c(cc1OC)-c1cc3ccc(OC)c(OC)c3c[n+]1CC2` [Pal, palmatine], in assay [1], the “effect of combinations when used” value was “only the irrelevant effect or the antagonistic effect”, the concentration for an effect of 20% (IC20) was found to be 0.1 µg/mL, the IC50 was 4.31 µM and the IC80 came to 22.8 µg/mL. Also, the IC90 in assay [1] was found to be 48.3 µg/mL. The IC50 in assay [2] was 4.31 µM.

Regarding `CCCC(=O)Nc1ccc(OCC(O)CNC(C)C)c(C(C)=O)c1` (centres unmarked) [acebutolol], the “retention on AChE-ICER / Control-ICER (specific binding)” value in assay [3] is “remains neither on AChE-ICER nor on enzyme-inactive Control-ICER”.
